From the NIST ThermoML archive (doi:10.1021/je901043q)
Numbers after ± are expanded uncertainties.

Assay: xn = mol fraction of the nth substance listed
Conditions: 101 kPa, Liquid

CCCCn1cc[n+](C)c1.N#C[S-] [1-butyl-3-methylimidazolium thiocyanate] + CCCCCCCO
Conditions	mass density [kg/m3]	viscosity [mPa·s]
298.15 K, x1 = 0.0806	845.64 ± 0.42	7.319 ± 0.21
298.15 K, x1 = 0.14	864.24 ± 0.41	8.422 ± 0.24
298.15 K, x1 = 0.2203	888.14 ± 0.4	10.16 ± 0.29
298.15 K, x1 = 0.3006	910.91 ± 0.4	12.31 ± 0.34
298.15 K, x1 = 0.3997	937.73 ± 0.41	15.5 ± 0.42
298.15 K, x1 = 0.4903	960.98 ± 0.43	18.92 ± 0.51
298.15 K, x1 = 0.5703	980.45 ± 0.45	22.22 ± 0.6
298.15 K, x1 = 0.6949	1008.83 ± 0.54	28.65 ± 0.77
298.15 K, x1 = 0.7981	1031.04 ± 0.69	34.6 ± 0.93
298.15 K, x1 = 0.8852	1048.62 ± 0.83	39.81 ± 1.1
298.15 K, x1 = 0.9793	1066.13 ± 1	47.21 ± 1.3
298.15 K, x1 = 1	1069.79 ± 1	51.74 ± 0.55
308.15 K, x1 = 0.0806	838.75 ± 0.43	5.395 ± 0.17
308.15 K, x1 = 0.14	857.45 ± 0.41	6.213 ± 0.19
308.15 K, x1 = 0.2203	881.49 ± 0.4	7.479 ± 0.22
308.15 K, x1 = 0.3006	904.36 ± 0.4	9.061 ± 0.26
308.15 K, x1 = 0.3997	931.34 ± 0.41	11.31 ± 0.32
308.15 K, x1 = 0.4903	954.7 ± 0.43	13.59 ± 0.38
308.15 K, x1 = 0.5703	974.26 ± 0.45	15.73 ± 0.43
308.15 K, x1 = 0.6949	1002.79 ± 0.54	19.86 ± 0.54
308.15 K, x1 = 0.7981	1025.06 ± 0.68	23.67 ± 0.65
308.15 K, x1 = 0.8852	1042.69 ± 0.82	26.77 ± 0.74
308.15 K, x1 = 0.9793	1060.22 ± 1	31.2 ± 0.86
308.15 K, x1 = 1	1063.89 ± 1	34.87 ± 0.96
318.15 K, x1 = 0.0806	831.82 ± 0.43	4.085 ± 0.13
318.15 K, x1 = 0.14	850.63 ± 0.41	4.725 ± 0.15
318.15 K, x1 = 0.2203	874.82 ± 0.41	5.654 ± 0.17
318.15 K, x1 = 0.3006	897.84 ± 0.4	6.884 ± 0.2
318.15 K, x1 = 0.3997	924.97 ± 0.41	8.55 ± 0.25
318.15 K, x1 = 0.4903	948.46 ± 0.43	10.19 ± 0.29
318.15 K, x1 = 0.5703	968.12 ± 0.46	11.67 ± 0.33
318.15 K, x1 = 0.6949	996.76 ± 0.53	14.49 ± 0.4
318.15 K, x1 = 0.7981	1019.11 ± 0.67	17.02 ± 0.47
318.15 K, x1 = 0.8852	1036.79 ± 0.81	19.03 ± 0.53
318.15 K, x1 = 0.9793	1054.36 ± 0.98	21.9 ± 0.62
318.15 K, x1 = 1	1058.02 ± 1	24.19 ± 0.68
328.15 K, x1 = 0.0806	824.81 ± 0.44	3.166 ± 0.11
328.15 K, x1 = 0.14	843.79 ± 0.42	3.685 ± 0.12
328.15 K, x1 = 0.2203	868.14 ± 0.41	4.369 ± 0.14
328.15 K, x1 = 0.3006	891.32 ± 0.41	5.306 ± 0.16
328.15 K, x1 = 0.3997	918.62 ± 0.41	6.634 ± 0.2
328.15 K, x1 = 0.4903	942.26 ± 0.43	7.875 ± 0.23
328.15 K, x1 = 0.5703	962.02 ± 0.46	8.926 ± 0.26
328.15 K, x1 = 0.6949	990.79 ± 0.53	11.02 ± 0.32
328.15 K, x1 = 0.7981	1013.22 ± 0.66	12.79 ± 0.36
328.15 K, x1 = 0.8852	1030.94 ± 0.8	14.2 ± 0.4
328.15 K, x1 = 0.9793	1048.56 ± 0.97	16.16 ± 0.46
328.15 K, x1 = 1	1052.19 ± 1	16.7 ± 0.48
338.15 K, x1 = 0.0806	817.69 ± 0.44	2.508 ± 0.094
338.15 K, x1 = 0.14	836.85 ± 0.42	2.935 ± 0.1
338.15 K, x1 = 0.2203	861.43 ± 0.41	3.47 ± 0.12
338.15 K, x1 = 0.3006	884.79 ± 0.41	4.186 ± 0.14
338.15 K, x1 = 0.3997	912.28 ± 0.42	5.262 ± 0.16
338.15 K, x1 = 0.4903	936.05 ± 0.43	6.24 ± 0.19
338.15 K, x1 = 0.5703	955.92 ± 0.46	7.057 ± 0.21
338.15 K, x1 = 0.6949	984.85 ± 0.53	8.62 ± 0.25
338.15 K, x1 = 0.7981	1007.36 ± 0.65	9.943 ± 0.29
338.15 K, x1 = 0.8852	1025.11 ± 0.79	10.97 ± 0.32
338.15 K, x1 = 0.9793	1042.8 ± 0.96	12.38 ± 0.36
338.15 K, x1 = 1	1046.43 ± 0.98	12.73 ± 0.37
348.15 K, x1 = 0.0806	810.46 ± 0.45	2.022 ± 0.081
348.15 K, x1 = 0.14	829.85 ± 0.43	2.383 ± 0.09
348.15 K, x1 = 0.2203	854.69 ± 0.42	2.837 ± 0.1
348.15 K, x1 = 0.3006	878.24 ± 0.41	3.403 ± 0.12
348.15 K, x1 = 0.3997	905.95 ± 0.42	4.222 ± 0.14
348.15 K, x1 = 0.4903	929.89 ± 0.44	5.029 ± 0.16
348.15 K, x1 = 0.5703	949.88 ± 0.46	5.663 ± 0.17
348.15 K, x1 = 0.6949	978.95 ± 0.53	6.884 ± 0.21
348.15 K, x1 = 0.7981	1001.53 ± 0.64	7.93 ± 0.24
348.15 K, x1 = 0.8852	1019.34 ± 0.77	8.707 ± 0.26
348.15 K, x1 = 0.9793	1037.06 ± 0.94	9.802 ± 0.29
348.15 K, x1 = 1	1040.7 ± 0.97	9.98 ± 0.3
